Earlier results, collected in patent EP1574563B1, “Use of detergent tablets” (UNILEVER N.V., priority 2004, dated 2005).
Where two headings read alike, the source gives them in different places.

[1] = other common materials, by contrast, at 20°C

| SMILES | Water Solubility (g/100g) [1] [g/100g] | Water Solubility (g/100g) (highly water-soluble materials, grams of solid required to form a saturated solution in 100 grams of water at 20°C) |
| --- | --- | --- |
| O=BO[O-].[Na+] [Sodium perborate anhydrous] | 3.7 | – |
| O=P(O)(O)OP(=O)(O)OP(=O)(O)O [Sodium tripolyphosphate anhydrous] | 15 | – |
| NC(N)=O [Urea] | – | >100 |
